Reference: US12421278B2, “Immunomodulators” (Bristol-Myers Squibb Company, priority 2020, dated 2025)
Starred links: 1 amine or outer side, 2 acyl side, 3 side chain; linkers in the order of their positions; H or OH if unused. Positions of bridges follow the written chain, without caps; N, C: chain ends. Non-standard residues stand in square brackets, D forms with d. Residues, ends and D or L forms follow the SMILES beside them. Trp(1-CH2CO2Me) = COC(=O)Cn1cc(C[C@H](N)C(=O)O)c2ccccc21; Trp(1-CH2COOH) = N[C@@H](Cc1cn(CC(=O)O)c2ccccc12)C(=O)O; X4 = O=C(O)c1cc(NC(=S)[*:1])cc(NC(=S)[*:2])c1; X2 = O=C([C@H](CCNCC=[*:3])N[*:1])[*:2]; X1 = O=C([C@H](CNCC=[*:3])N[*:1])[*:2]; X3 = O=C(NCCCCCCNC(=O)[*:2])[*:1]; Hyp = O=C(O)[C@@H]1C[C@@H](O)CN1; Oxalyl = O=C(C(=O)[*:2])[*:1]; NMeNle = CCCC[C@H](NC)C(=O)O; NEtAla = CCN[C@@H](C)C(=O)O; NMeA = CN[C@@H](C)C(=O)O; Dab = NCC[C@H](N)C(=O)O; Dap = NC[C@H](N)C(=O)O

target: T1, PD-1/PD-L1 (Homo sapiens, UniProt Q9NZQ7); assay: PD-1/PD-L1 Homogenous Time-Resolved Fluorescence (HTRF) binding assay; conditions: PD-L1-His 10 nM final, PD-1-Ig 20 nM final
T1 construct: TVMV protease site (C); made in house; host or cells: HEK293T cells
T1 sequence (Q9NZQ7 18-239): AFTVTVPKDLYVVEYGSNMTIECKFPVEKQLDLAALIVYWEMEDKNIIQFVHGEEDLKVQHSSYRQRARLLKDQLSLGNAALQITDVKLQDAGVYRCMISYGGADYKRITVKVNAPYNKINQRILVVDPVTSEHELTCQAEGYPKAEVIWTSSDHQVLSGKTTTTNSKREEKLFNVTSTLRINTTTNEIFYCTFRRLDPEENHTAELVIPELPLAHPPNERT
Text: The ability of the compounds of formula (I) to bind to PD-L1 was investigated using a PD-1/PD-L1 Homogenous Time-Resolved Fluorescence (HTRF) binding assay.
Homogenous Time-Resolved Fluorescence (HTRF) Binding Assay
The interaction of PD-1 and PD-L1 can be assessed using soluble, purified preparations of the extracellular domains of the two proteins. The PD-1 and PD-L1 protein extracellular domains were expressed as fusion proteins with detection tags, for PD-1, the tag was the Fc portion of Immunoglobulin (PD-1-Ig) and for PD-L1 it was the 6 histidine motif (PD-L1-His). All binding studies were performed in an HTRF assay buffer consisting of dPBS supplemented with 0.1% […] bovine serum albumin and 0.05% (v/v) Tween-20. For the h/PD-L1-His binding assay, inhibitors were pre-incubated with PD-L1-His (10 nM final) for 15 m in 4 μl of assay buffer, followed by addition of PD-1-Ig (20 nM final) in 1 μl of assay buffer and further incubation for 15 m. HTRF detection was achieved using europium crypate-labeled anti-Ig (1 nM final) and allophycocyanin (APC) labeled anti-His (20 nM final). Antibodies were diluted in HTRF detection buffer and 5 μl was dispensed on top of the binding reaction. The reaction mixture was allowed to equilibrate for 30 minutes and the resulting signal (665 nm/620 nm ratio) was obtained using an EnVision fluorometer. Additional binding assays were established between the human proteins PD-1-Ig/PD-L2-His (20 & 5 nM, respectively) and CD80-His/PD-L1-Ig (100 & 10 nM, respectively).
Recombinant Proteins: Human PD-1 (25-167) with a C-terminal human Fc domain of immunoglobulin G (Ig) epitope tag [hPD-1 (25-167)-3S-IG] and human PD-L1 (18-239) with a C-terminal His epitope tag [hPD-L1(18-239)-TVMV-His] were expressed in HEK293T cells and purified sequentially by ProteinA affinity chromatography and size exclusion chromatography. Human PD-L2-His and CD80-His was obtained through commercial sources.
Table 1 lists the IC50 values for representative examples of this disclosure measured in the PD-1/PD-L1 Homogenous Time-Resolved Fluorescence (HTRF) binding assay.

| Structure (SMILES) | IC50 |
| --- | --- |
| CCCC[C@H]1C(=O)N(C)[C@@H](CCCC)C(=O)N[C@@H](CC(C)C)C(=O)N[C@H](C(=O)NCC(N)=O)CSCC(=O)N[C@@H](Cc2ccc(O)cc2)C(=O)N(C)[C@@H](C)C(=O)N[C@@H](CC(N)=O)C(=O)N2CCC[C@H]2C(=O)N[C@H]2CNC(=O)NCCCCCCNC(=O)NCC[C@H](NC(=O)[C@H](Cc3c[nH]c4ccccc34)NC(=O)[C@@H]3C[C@@H](O)CN3C(=O)[C@H](CC(C)C)NC2=O)C(=O)N[C@@H](Cc2cn(CC(=O)O)c3ccccc23)C(=O)N1C [Example 1001] ({CH2CO}-Y[NMeA]NP[Dap]L[Hyp]W[Dab][Trp(1-CH2COOH)][NMeNle][NMeNle]LCG-NH2; linker 5-9 via X3; thioether N-14) | 4 nM |
| CCCC[C@H]1C(=O)N(C)[C@@H](CCCC)C(=O)N[C@@H](CC(C)C)C(=O)N[C@H](C(=O)NCC(N)=O)CSCC(=O)N[C@@H](Cc2ccc(O)cc2)C(=O)N(C)[C@@H](C)C(=O)N[C@@H](CC(N)=O)C(=O)N(CC)[C@@H](C)C(=O)N[C@H]2CNC/C=C\CNCC[C@H](NC(=O)[C@H](Cc3c[nH]c4ccccc34)NC(=O)[C@@H]3C[C@@H](O)CN3C(=O)[C@H](CC(C)C)NC2=O)C(=O)N[C@@H](Cc2cn(CC(=O)O)c3ccccc23)C(=O)N1C [Example 1005] ({CH2CO}-Y[NMeA]N[NEtAla][X1]L[Hyp]W[X2][Trp(1-CH2COOH)][NMeNle][NMeNle]LCG-NH2; staple (Z) 5-9; thioether N-14) | 8.3 nM |
| CCCC[C@H]1C(=O)N(C)[C@@H](CCCC)C(=O)N[C@@H](CC(C)C)C(=O)N[C@H](C(=O)NCC(N)=O)CSCC(=O)N[C@@H](Cc2ccc(O)cc2)C(=O)N(C)[C@H]2CN3CC[C@H](NC(=O)[C@H](Cc4c[nH]c5ccccc45)NC(=O)[C@@H]4C[C@@H](O)CN4C(=O)[C@H](CC(C)C)NC(=O)[C@H](CNc4c3c(=O)c4=O)NC(=O)[C@@H]3CCCN3C(=O)[C@H](CC(N)=O)NC2=O)C(=O)N[C@@H](Cc2cn(CC(=O)O)c3ccccc23)C(=O)N1C [Example 1002] | 210 nM |
| CCCC[C@H]1C(=O)N(C)[C@@H](CCCC)C(=O)N[C@@H](CC(C)C)C(=O)N[C@H](C(=O)NCC(N)=O)CSCC(=O)N[C@@H](Cc2ccc(O)cc2)C(=O)N(C)[C@@H](C)C(=O)N[C@@H](CC(N)=O)C(=O)N2CCC[C@H]2C(=O)N[C@H]2CNC(=O)C(=O)NCC[C@H](NC(=O)[C@H](Cc3c[nH]c4ccccc34)NC(=O)[C@@H]3C[C@@H](O)CN3C(=O)[C@H](CC(C)C)NC2=O)C(=O)N[C@@H](Cc2cn(CC(=O)OC)c3ccccc23)C(=O)N1C [Example 1003] ({CH2CO}-Y[NMeA]NP[Dap]L[Hyp]W[Dab][Trp(1-CH2CO2Me)][NMeNle][NMeNle]LCG-NH2; linker 5-9 via Oxalyl; thioether N-14) | 120 nM |
| CCCC[C@H]1C(=O)N(C)[C@@H](CCCC)C(=O)N[C@@H](CC(C)C)C(=O)N[C@H](C(=O)NCC(N)=O)CSCC(=O)N[C@@H](Cc2ccc(O)cc2)C(=O)N(C)[C@@H](C)C(=O)N[C@@H](CC(N)=O)C(=O)N2CCC[C@H]2C(=O)N[C@H]2CNC(=S)Nc3cc(cc(C(=O)O)c3)NC(=S)NCC[C@H](NC(=O)[C@H](Cc3c[nH]c4ccccc34)NC(=O)[C@@H]3C[C@@H](O)CN3C(=O)[C@H](CC(C)C)NC2=O)C(=O)N[C@@H](Cc2cn(CC(=O)O)c3ccccc23)C(=O)N1C [Example 1007] ({CH2CO}-Y[NMeA]NP[Dap]L[Hyp]W[Dab][Trp(1-CH2COOH)][NMeNle][NMeNle]LCG-NH2; linker 5-9 via X4; thioether N-14) | 78 nM |
| CCCC[C@H]1C(=O)N(C)[C@@H](CCCC)C(=O)N[C@@H](CC(C)C)C(=O)N[C@H](C(=O)NCC(N)=O)CSCC(=O)N[C@@H](Cc2ccc(O)cc2)C(=O)N(C)[C@@H](C)C(=O)N[C@@H](CC(N)=O)C(=O)N2CCC[C@H]2C(=O)N[C@H]2CNCC(O)COCC(O)CNCC[C@H](NC(=O)[C@H](Cc3c[nH]c4ccccc34)NC(=O)[C@@H]3C[C@@H](O)CN3C(=O)[C@H](CC(C)C)NC2=O)C(=O)N[C@@H](Cc2cn(CC(=O)O)c3ccccc23)C(=O)N1C (stereo partly drawn) [Example 1004] | 11 nM |
